# Experiments:
# Assay type in all cases: functional
# Details in all cases: read-out: DIZ
# Staphylococcus aureus [1] = assay: Antibacterial activity against Staphylococcus aureus MTCC 96 at 75 ug/ml after overnight incubation by disk diffusion method
# Bacillus subtilis [2] = assay: Antibacterial activity against Bacillus subtilis MTCC 619 at 75 ug/ml after overnight incubation by disk diffusion method
# Escherichia coli [3] = assay: Antibacterial activity against Escherichia coli MTCC 722 at 75 ug/ml after overnight incubation by disk diffusion method
# Klebsiella pneumoniae [4] = assay: Antibacterial activity against Klebsiella pneumoniae MTCC 109 at 75 ug/ml after overnight incubation by disk diffusion method
# Proteus vulgaris [5] = assay: Antibacterial activity against Proteus vulgaris MTCC 1771 at 75 ug/ml after overnight incubation by disk diffusion method
# Escherichia coli [6] = assay: Antibacterial activity against Escherichia coli MTCC 722 at 30 ug/ml after overnight incubation by disk diffusion method
# Staphylococcus aureus [7] = assay: Antibacterial activity against Staphylococcus aureus MTCC 96 at 30 ug/ml after overnight incubation by disk diffusion method
# Bacillus subtilis [8] = assay: Antibacterial activity against Bacillus subtilis MTCC 619 at 30 ug/ml after overnight incubation by disk diffusion method
# Klebsiella pneumoniae [9] = assay: Antibacterial activity against Klebsiella pneumoniae MTCC 109 at 30 ug/ml after overnight incubation by disk diffusion method
# Proteus vulgaris [10] = assay: Antibacterial activity against Proteus vulgaris MTCC 1771 at 30 ug/ml after overnight incubation by disk diffusion method
SMILES,zone of inhibition at 75 µg/mL (Staphylococcus aureus [1]) [mm],zone of inhibition at 75 µg/mL (Bacillus subtilis [2]) [mm],zone of inhibition at 75 µg/mL (Escherichia coli [3]) [mm],zone of inhibition at 75 µg/mL (Klebsiella pneumoniae [4]) [mm],zone of inhibition at 75 µg/mL (Proteus vulgaris [5]) [mm],zone of inhibition at 30 µg/mL (Escherichia coli [6]) [mm],zone of inhibition at 30 µg/mL (Staphylococcus aureus [7]) [mm],zone of inhibition at 30 µg/mL (Bacillus subtilis [8]) [mm],zone of inhibition at 30 µg/mL (Klebsiella pneumoniae [9]) [mm],zone of inhibition at 30 µg/mL (Proteus vulgaris [10]) [mm]
CCCCCCCCCCCCCCCCC/C1=c2\cc/c([nH]2)=C(\CCCCCCCCCCCCCCCCC)C2=N/C(=C\C3=NC(=CC3)/C=C3/C=CC1=N3)C=C2,13,14,13,10,12,–,–,–,–,–
O=C(N[C@H](CO)[C@H](O)c1ccc([N+](=O)[O-])cc1)C(Cl)Cl [CHLORAMPHENICOL],–,–,–,–,–,31,23,23,24,14
CCCCCCCCCCCCCCCCN(CCCCCCCCCCCCCCCC)Cc1c2nc(cc3ccc(cc4nc(cc5ccc1[nH]5)C=C4)[nH]3)C=C2,15,16,14,12,14,–,–,–,–,–

# Reference: ChEMBL document CHEMBL3045896, “Synthesis of novel porphyrin-based lipids and their antibacterial activity” (2011)
